Results on seven compounds are retold here after US20030237104A1 (priority 2002, published 2003).

Where two headings read alike, the source gives them in different places.

The test system of series [1] is CB6F1-HRAS2 mice. Conditions: in vivo.
The subject of series [2] is non-Tg mice (CB6F1). To be noted: mouse, in vivo.
Series [3] has as its system Salmonella. Conditions: cited from earlier work.
The test system of series [4] is CB6F1-Tg-rasH2 mice. To be noted: mouse, in vivo, ip, 75 mg/kg.
Series [5] has as its system rasH2 mice. Conditions: mouse, in vivo, ip; cited from earlier work.
Setting [6] is: CB6F1-HRAS2 and non-Tg CB6F1, mouse.
Where [7] appears, read: CB6F1-HRAS2, mouse, ip, 60 mg/kg.
[8] abbreviates: CB6F1-HRAS2, mouse, sc, 15 mg/kg.

As for `O=P1(N(CCCl)CCCl)NCCCO1` (centres unmarked) [Cyclophosphamide], the “adenocarcinomas (lung)” value in series [1] (CB6F1-HRAS2, mouse) is reported as “observed only in one cyclophosphamide-treated male CB6F1-HRAS2 mouse”. Moreover, in series [1] (mouse), the “Malignant Tumors Tg” value is recorded as “+”; the “Tumor incidence and/or multiplicity” value is reported as “Tg ÷ non-Tg”; the “incidence and multiplicity of lung adenoma” value (“incidence and multiplicity” for short) is “not significantly higher”; the “incidence of lung adenoma” value is reported as “not significantly different from that in corresponding non-Tg mice”. In series [1] (mouse), the lung tumors entry is “induced lung tumors” and the “tumors in other organs (bladder, mammary gland, lymphatic systems)” value is “No tumor was observed”. For the same compound, the “Malignant Tumors Non-Tg” value in series [2] is “−”. The “Genotoxicity (Salmonella)” value in series [3] was “+”.

As to `CN(N=O)C(N)=O` [MNU, N-Methyl-N-nitrosourea], in series [4], the “incidences of forestomach tumor and malignant lymphoma among institutions” value is “High and consistent incidences”; the “incidences of tumor (squamous cell tumor in forestomach, skin, vagina; Harderian gland carcinoma; lung adenomas; malignant lymphoma)” value was “increased”. In series [1] (CB6F1-HRAS2, mouse), the “forestomach squamous cell carcinoma” value is “seen only in MNU-treated CB6F1-HRAS2 mice”. For the same compound, in series [1] (mouse), the “Malignant Tumors Tg” value is “+”, the “Rapid tumor response in Tg mice” value is “+”, the “Tumor incidence and/or multiplicity” value was “Tg > non-Tg” and the forestomach papillomas entry is “high incidence”. In addition, in series [1] (mouse), the “incidence and multiplicity” value is recorded as “not significantly higher”; the “incidence of skin papilloma” value is on record as “significantly high incidence”. Also, the incidence of lymphoma result in series [1] (mouse, 75 mg/kg) is on record as “higher”. The “forestomach and skin papillomas” value in series [5] was “higher incidence”. Besides, in series [2], the “Malignant Tumors Non-Tg” value is reported as “−”; the forestomach papillomas entry was “no papillomas”; the “skin papillomas and hyperplasias” value is given as “did not induce”. The “Genotoxicity (Salmonella)” value in series [3] was “+”.

`[O-][n+]1ccc(NO)c2ccccc21` [4HAQO, 4-Hydroxyaminoquinoline-1-oxide]: in series [1] (setting [6]), the “tumors in the exocrine portion of the pancreas” value is given as “Neither the 4HAQO-treated Tg nor the non-Tg mice developed tumors”. Further, in series [1] (mouse), the “Malignant Tumors Tg” value is “++”; the “Rapid tumor response in Tg mice” value is listed as “+”; the “Tumor incidence and/or multiplicity” value is listed as “Tg > non-Tg”; the “forestomach and skin papillomas” value is on record as “induced”. Besides, the “other tumors (e.g., leukemias and thymomas)” value in series [1] (mouse) is on record as “observed only in the Tg mice”. Also, in series [2], the “Malignant Tumors Non-Tg” value is “+”; the “forestomach and skin papillomas” value was “hardly observed”. Also, in series [3], the “Genotoxicity (Salmonella)” value is “+”.

Turning to `C[N+]([O-])=NCO` [MAM, Methylazoxymethanol], in series [1] (mouse), the “Malignant Tumors Tg” value was “+”; the “Tumor incidence and/or multiplicity” value was “Tg > non-Tg^c”; the “incidence and multiplicity” value was “not significantly higher”. Further, the lung adenoma incidence result in series [1] (mouse, sc, 20 mg/kg) is recorded as “similar”. The “Malignant Tumors Non-Tg” value in series [2] is given as “−”. Besides, the “Genotoxicity (Salmonella)” value in series [3] is “+”.

As to `C=COC(N)=O` [Vinyl carbamate], in series [1] (setting [7]), the lung adenocarcinomas incidence was 50%, the lung adenomas incidence worked out at 100% and the “mice bearing spleen hemangiosarcomas” value is reported as “Approximately 90%”. For the same compound, the liver tumors result in series [1] (setting [6]) is “neither CB6F1-HRAS2 mice nor control non-Tg mice treated with these compounds developed liver tumors”. In addition, in series [1] (mouse), the “Malignant Tumors Tg” value is listed as “++”, the “Rapid tumor response in Tg mice” value is reported as “+” and the “Tumor incidence and/or multiplicity” value is reported as “Tg > non-Tg”. Also, in series [2] (CB6F1 (non-Tg), ip, 60 mg/kg), the lung adenomas incidence is more than 90%. The “Malignant Tumors Non-Tg” value in series [2] is “+”. Also, in series [2] (ip, 60 mg/kg), the “incidence of lung adenocarcinoma” value is recorded as “much lower”, the spleen hemangiosarcomas entry is reported as “none developed” and the “tumor multiplication (lung adenomas)” value is on record as “lower”. For the same compound, in series [3], the “Genotoxicity (Salmonella)” value was “+”.

As to `S=C1NCCN1` [Ethylene thiourea], in series [1] (female, CB6F1-HRAS2, mouse), the “incidence of thyroid adenocarcinoma” value is on record as 9% and the thyroid adenomas incidence is on record as 26%. Also, in series [1] (mouse), the “Malignant Tumors Tg” value is reported as “+”, the “Tumor incidence and/or multiplicity” value is “Tg ÷ non-Tg” and the thyroid tumors result is listed as “did not induce”. Besides, in series [2] (female, CB6F1 (non-Tg)), the “incidence of thyroid adenocarcinoma” value was 4% and the thyroid adenomas incidence came to 20%. The “Malignant Tumors Non-Tg” value in series [2] was “+”. In addition, in series [3], the “Genotoxicity (Salmonella)” value is on record as “−” and the “Salmonella mutagenesis assay result” value was “negative”.

For the compound `O=[N+]([O-])c1cc[n+]([O-])c2ccccc12` [4NQO, 4-Nitroquinoline-1-oxide], in series [1] (setting [8]), the lung adenocarcinomas result is on record as “observed only in 4NQO-treated CB6F1-HRAS2 mice” and the “squamous cell carcinomas of skin” value is recorded as “observed only in 4NQO-treated CB6F1-HRAS2 mice”. For the same compound, the “mice bearing skin papillomas” value in series [1] (both, CB6F1-HRAS2, mouse, sc, 15 mg/kg) is reported as “Approximately 90%”. In addition, in series [1] (mouse), the “Malignant Tumors Tg” value is given as “+”, the “Rapid tumor response in Tg mice” value is recorded as “+” and the “Tumor incidence and/or multiplicity” value is listed as “Tg > non-Tg”. Further, in series [1] (mouse, sc, 15 mg/kg), the “incidence of lung adenoma” value is given as “higher than that in corresponding non-Tg mice”. In addition, in series [2], the “Malignant Tumors Non-Tg” value was “−”. Besides, in series [2] (sc, 15 mg/kg), the skin tumors entry is recorded as “No skin tumors were observed”.
